# Assay results taken from patent US5344765A, “DNA encoding polypeptides with activity against gram-positive and gram-negative bacteria” (priority 1993, dated 1994).
# Square brackets hold non-standard residues; d marks the D form. Ends that are not written are not given here. Peptide text beside a SMILES is read from it. hSer = N[C@@H](CCO)C(=O)O
# Legend:
# B. megaterium = assay: halo (inhibition zone) agar assay of bactericidal activity; type: cell-based, Bacillus megaterium; conditions: for Relative activity: ratio of the radius of the cleared halo versus that for E. coli D21: B. megaterium, overnight incubation at 25° C.
# Protocol: (§1) The assay for antimicrobial activity was performed by pouring 10 ml of agar in TYE media containing about 10^7 viable cells of the test organisms. Wells, 2 mm in diameter, were punched in the agar plates. Aliquots of the modified cecropin-like polypeptides (2-12 ul) were then added to each well. The diameter of the inhibition zones, or haloes, around the wells, were measured after overnight incubation at 25° C.
# (§2) The activities of various cecropin-like polypeptides were tested against both Gram-negative and Gram-positive organisms. Anti-microbial activity against the Gram-negative organisms remained unaltered for most of the Gram-negative bacteria (except, i.e., Serratia marcescens) as shown in Table 1. […] To determine a standard of halo formation, the various modified cecropin-like polypeptides were also applied to E. coli D21. Activity shown in Tables 1 and 2 is expressed as the ratio of the radius of the cleared halo for each organism versus that for E. coli D21.
# (§3) The cecropin-like polypeptide modified at the carboxy terminus with ehtylenediamine and naturally occurring cecropin A were tested against a variety of organisms. The relative activities of the antimicrobial agents were expressed per nanomole of polypeptide applied to each well (Table 3).
# S. faecalis = assay: as above; type: cell-based, Streptococcus faecalis
# Protocol: as §1, §2, §3
# B. subtilis = assay: as above; type: cell-based; conditions: Bacillus subtilus; per nanomole of polypeptide applied to well
# Protocol: as §1, §2, §3
# M. luteus = assay: as above; type: cell-based; conditions: Micrococcus luteus; per nanomole of polypeptide applied to well
# Protocol: as §1, §2, §3
# Escherichia coli = assay: halo assay, activity per nanomole; type: cell-based; conditions: per nanomole of polypeptide applied to well
# Protocol: as §1, §3
# Bacillus megaterium = conditions: from the literature; cited from earlier work
compound,measurement,setting,value
CC[C@H](C)[C@H](NC(=O)CNC(=O)[C@H](CC(=O)O)NC(=O)[C@H](CCCNC(=N)N)NC(=O)[C@@H](NC(=O)[C@H](CC(N)=O)NC(=O)[C@H](CCC(N)=O)NC(=O)CNC(=O)[C@@H](NC(=O)[C@H](CCCCN)NC(=O)[C@H](CCC(=O)O)NC(=O)[C@@H](NC(=O)[C@H](CCCCN)NC(=O)[C@H](CCCCN)NC(=O)[C@H](Cc1ccccc1)NC(=O)[C@H](CC(C)C)NC(=O)[C@H](CCCCN)NC(=O)[C@H](Cc1c[nH]c2ccccc12)NC(=O)[C@@H](N)CCCCN)[C@@H](C)CC)C(C)C)[C@@H](C)CC)C(=O)N[C@H](C(=O)N[C@@H](CCCCN)C(=O)N[C@@H](C)C(=O)NCC(=O)N1CCC[C@H]1C(=O)N[C@@H](C)C(=O)N[C@H](C(=O)N[C@@H](C)C(=O)N[C@H](C(=O)N[C@H](C(=O)NCC(=O)N[C@@H](CCC(N)=O)C(=O)N[C@@H](C)C(=O)N[C@H](C(=O)N[C@@H](CCC(N)=O)C(=O)N[C@H](C(=O)N[C@@H](C)C(=O)N[C@@H](CCCCN)C(=O)N[C@@H](CCO)C(=O)O)[C@@H](C)CC)[C@@H](C)O)C(C)C)C(C)C)C(C)C)[C@@H](C)CC [CA--HS--COOH] (H-KWKLFKKIEKVGQNIRDGIIKAGPAVAVVGQATQIAK[hSer]-OH),Relative activity: ratio of the radius of the cleared halo versus that for E. coli D21,B. megaterium,0.5 ± 0.1
CC[C@H](C)[C@H](NC(=O)CNC(=O)[C@H](CC(=O)O)NC(=O)[C@H](CCCNC(=N)N)NC(=O)[C@@H](NC(=O)[C@H](CC(N)=O)NC(=O)[C@H](CCC(N)=O)NC(=O)CNC(=O)[C@@H](NC(=O)[C@H](CCCCN)NC(=O)[C@H](CCC(=O)O)NC(=O)[C@@H](NC(=O)[C@H](CCCCN)NC(=O)[C@H](CCCCN)NC(=O)[C@H](Cc1ccccc1)NC(=O)[C@H](CC(C)C)NC(=O)[C@H](CCCCN)NC(=O)[C@H](Cc1c[nH]c2ccccc12)NC(=O)[C@@H](N)CCCCN)[C@@H](C)CC)C(C)C)[C@@H](C)CC)C(=O)N[C@H](C(=O)N[C@@H](CCCCN)C(=O)N[C@@H](C)C(=O)NCC(=O)N1CCC[C@H]1C(=O)N[C@@H](C)C(=O)N[C@H](C(=O)N[C@@H](C)C(=O)N[C@H](C(=O)N[C@H](C(=O)NCC(=O)N[C@@H](CCC(N)=O)C(=O)N[C@@H](C)C(=O)N[C@H](C(=O)N[C@@H](CCC(N)=O)C(=O)N[C@H](C(=O)N[C@@H](C)C(=O)N[C@@H](CCCCN)C(=O)N[C@@H](CCO)C(N)=O)[C@@H](C)CC)[C@@H](C)O)C(C)C)C(C)C)C(C)C)[C@@H](C)CC [CA--HS--NH2] (H-KWKLFKKIEKVGQNIRDGIIKAGPAVAVVGQATQIAK[hSer]-NH2),Relative activity: ratio of the radius of the cleared halo versus that for E. coli D21,B. megaterium,0.4 ± 0.2
same,Relative activity: ratio of the radius of the cleared halo versus that for E. coli D21,"S. faecalis; S. faecalis, overnight incubation at 25° C.",0
KWKLFKKIEKVGQNIRDGIIKAGPAVAVVGQATQIAK [CA--COOH],Relative activity: ratio of the radius of the cleared halo versus that for E. coli D21,B. megaterium,0.2 ± 0.08
"KWKLFKKIEKVGQNIRDGIIKAGPAVAVVGQATQIAK-NH2 [CA--NH2, cecropin A]",Activity per Nanomole (radius of the inhibitory ring),B. subtilis,< 0.5 millimeters
same,Activity per Nanomole (radius of the inhibitory ring),M. luteus,6.1 millimeters
same,Relative activity: ratio of the radius of the cleared halo versus that for E. coli D21,B. megaterium,0.7 ± 0.05
same,Activity per Nanomole (radius of the inhibitory ring),"B. megaterium; Bacillus megaterium, per nanomole of polypeptide applied to well",5.1 millimeters
same,Activity per Nanomole (radius of the inhibitory ring),"S. faecalis; Streptococcus faecalis, per nanomole of polypeptide applied to well",< 0.5 millimeters
same,Activity per Nanomole (radius of the inhibitory ring),Escherichia coli,6.1 millimeters
same,Sensitivity of Bacillus megaterium to cecropin,Bacillus megaterium,highly sensitive
"cecropin B (KWKVFKKIEKMGRNIRNGIVKAGPAIAVLGEAKAL; ends and bridges not checked; UniProt P01508 27-61, looked up) [natural antibacterial peptide purified from immune hemolymph]",Sensitivity of Bacillus megaterium to cecropin,Bacillus megaterium,highly sensitive
cecropin D,Sensitivity of Bacillus megaterium to cecropin,Bacillus megaterium,relatively resistant
